# Measurements from patent US12685733B2, “Indole molecules and use thereof in the inhibition of DNA polymerases” (BioVentures, LLC, priority 2019, dated 2026).
# pIC50: −log10 of the molar value.
# Columns and labels:
# [1] = target: T1, hpol κ (Homo sapiens, UniProt Q9UBT6); assay: Fluorescence-based (TAMRA/BHQ strand displacement) DNA polymerase activity assay; conditions: for activity at 40 µM: read-out: % Activity Mean (hpol κ activity)
# T1 sequence (Q9UBT6 19-526): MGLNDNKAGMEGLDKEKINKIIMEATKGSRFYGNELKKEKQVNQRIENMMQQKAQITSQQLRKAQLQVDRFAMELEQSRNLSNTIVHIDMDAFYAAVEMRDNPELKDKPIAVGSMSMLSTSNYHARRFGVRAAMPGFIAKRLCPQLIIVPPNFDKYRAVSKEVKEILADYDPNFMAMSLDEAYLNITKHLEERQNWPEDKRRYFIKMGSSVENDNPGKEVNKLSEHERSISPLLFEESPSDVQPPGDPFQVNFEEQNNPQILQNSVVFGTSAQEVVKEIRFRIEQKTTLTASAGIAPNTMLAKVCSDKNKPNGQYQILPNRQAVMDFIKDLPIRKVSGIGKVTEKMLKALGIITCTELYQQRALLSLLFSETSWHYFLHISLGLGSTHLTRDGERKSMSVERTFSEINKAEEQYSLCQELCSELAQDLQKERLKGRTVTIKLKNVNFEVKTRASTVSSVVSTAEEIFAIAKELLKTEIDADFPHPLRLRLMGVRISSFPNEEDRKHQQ
# [2] = target: T2, recombinant hpol κ (Homo sapiens, UniProt Q9UBT6); conditions: earlier screen; cited from earlier work
# T2 sequence (Q9UBT6 1-870): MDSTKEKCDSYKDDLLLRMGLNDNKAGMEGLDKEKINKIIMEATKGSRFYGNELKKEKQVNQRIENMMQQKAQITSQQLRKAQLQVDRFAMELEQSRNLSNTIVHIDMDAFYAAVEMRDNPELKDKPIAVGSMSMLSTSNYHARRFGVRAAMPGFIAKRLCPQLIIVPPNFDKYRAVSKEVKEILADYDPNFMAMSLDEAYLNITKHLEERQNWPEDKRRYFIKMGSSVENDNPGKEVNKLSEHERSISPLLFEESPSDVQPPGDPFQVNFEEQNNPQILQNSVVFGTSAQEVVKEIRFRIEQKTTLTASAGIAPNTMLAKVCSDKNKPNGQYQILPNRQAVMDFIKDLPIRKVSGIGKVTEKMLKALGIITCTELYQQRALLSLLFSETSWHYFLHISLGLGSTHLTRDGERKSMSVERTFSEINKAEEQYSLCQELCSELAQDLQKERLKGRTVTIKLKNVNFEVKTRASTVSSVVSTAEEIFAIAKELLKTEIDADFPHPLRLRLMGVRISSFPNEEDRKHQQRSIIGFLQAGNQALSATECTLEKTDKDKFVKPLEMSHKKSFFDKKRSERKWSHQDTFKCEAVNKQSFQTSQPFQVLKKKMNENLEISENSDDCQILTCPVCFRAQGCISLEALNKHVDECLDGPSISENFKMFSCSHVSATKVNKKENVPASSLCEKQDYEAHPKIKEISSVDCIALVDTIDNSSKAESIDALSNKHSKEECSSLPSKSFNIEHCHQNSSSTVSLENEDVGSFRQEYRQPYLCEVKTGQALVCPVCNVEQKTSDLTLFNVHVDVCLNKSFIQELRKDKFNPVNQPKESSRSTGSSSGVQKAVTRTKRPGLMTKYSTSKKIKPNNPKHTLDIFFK
# [3] = test system: hpol κ-proficient HAP-1 cells; assay: Clonogenic survival assay; format: cell-based, human; conditions: 250 μM TMZ alone
# Protocol: (§1) HAP-1 and hpol κ^KO cells were purchased from Horizons Discovery Group LLC (Cambridge, UK). The company generated the Hap1 cells using CRISPR-Cas9 technology and the elimination of kappa expression was confirmed by Sanger sequence genome editing. We further confirmed the elimination of hpol κ protein expression by Western blotting (data not shown). Hap1 cells were cultured in Iscove's modified Dulbecco's medium (IMDM; Invitrogen, CA, USA) supplemented with 10% (v/v) fetal bovine serum (FBS; Atlas Biologicals, CO, USA) and 1% (v/v) antibiotic/antimycotic solution (Sigma-Aldrich, MO, USA).T98G cells were purchased from ATCC (American Type Culture Collection, VA, USA). T98G cells were cultured in MEM (Minimum Essential Medium) (Invitrogen, CA, USA) supplemented with 10% (v/v) FBS (Fetal Bovine Serum, Atlas Biologicals, CO, USA) and antibiotic/antimycotic solution (1%, v/v) (Sigma-Aldrich, MO, USA). NT2 cells were kindly provided by Dr. Michael Borrelli (University of Arkansas for Medical Sciences, AR, USA). NT2 cells were cultured in DMEM/F12 (Dulbecco's Modified Eagle Medium) supplemented with 10% (v/v) FCS (Fetal Calf Serum) and antibiotic/antimycotic solution (1%) (Sigma-Aldrich, MO, USA).
# (§2) To measure the clonogenic ability, cells were plated (500 cells per well) in 6-well dishes. In the case of HAP-1 cells, cells were treated the following day after plating, with temozolomide (TMZ) (0, 1, 5, 50, 125 and 250 μM) alone or in combination with UAMS-48 (0.1 and 0.5 μM) for 1 hour. In the case of T98G and NT2 cells, treatment was done on the following day of plating, with increasing concentrations of TMZ alone or in combination with UAMS-48 (50 nM) for 3 hrs. T98G and NT2 cells were treated with increasing concentrations of UAMS-48 for 3 hrs. After treatment, cells were cultured in fresh IMDM supplemented with 10% FBS for 10 days. The colonies were gently washed with 1×PBS, fixed with 3.7% (v/v) formaldehyde for 20 mins at RT and stained with crystal violet solution (Sigma-Aldrich, MO, USA) for 30 mins at RT.
# (§3) The fixed crystal-violet stained colonies in each 6-well plate were examined under an EVOS XL Core imaging system (Thermo Fisher Scientific) under bright-field, and the colonies were inspected manually. […] Color images of each 6-well plate were captured and opened for processing using the Fiji version of the freely available software ImageJ. Setting the appropriate threshold for counting colonies for each cell type, corresponding to the respective radii calculated previously, the colonies were counted using the Colony Area plugin of ImageJ. Manual counting was performed on a few wells picked randomly, and the colony count so obtained was tallied with the number obtained using ImageJ, to ensure they matched reasonably. All experiments were performed in triplicate, and the colony number for each well was expressed as the mean (±standard deviation). The results were plotted to generate a dose response curve for TMZ treatment using the software Graphpad Prism, where the mean number of colonies was plotted along the Y-axis, and the TMZ concentration along the X-axis. Bar charts comparing the mean number of colonies as a function of the various conditions were also plotted for both cell types. Combination index values were calculated using the Chou-Talalay method (Chou 2010).
# [4] = test system: hpol κ-deficient HAP-1 cells; assay: Clonogenic survival assay; format: cell-based, human; conditions: 250 μM TMZ
# Protocol: as §1, §2, §3
Structure (SMILES),activity at 40 µM [1],further results
Cc1c(/C=N/NC(=N)N)c2ccccc2n1C(=O)c1cccc2ccccc12 [IAG-1],105%,pIC50 [1]: 4.07
COc1ccc2c(c1)c(/C=N/NC(=N)N)cn2C(=O)c1cccc2ccccc12 [IAG-2],104%,pIC50 [1]: 4.16
N=C(N)N/N=C/c1cn(Cc2ccc3ccccc3c2)c2ccccc12 [IAG-4],95%,pIC50 [1]: 4.32
COc1ccc2c(c1)c(/C=N/NC(=N)N)cn2Cc1ccc2ccccc2c1 [IAG-5],94%,pIC50 [1]: 4.36
N=C(N)N/N=C/c1cn(Cc2cccc3ccccc23)c2ccc(Cl)cc12 [IAG-7],64%,pIC50 [1]: 4.62
N=C(N)N/N=C/c1cn(Cc2cccc3ccccc23)c2ccc(Br)cc12 [IAG-8],57%,pIC50 [1]: 4.62 to 5.14
N=C(N)N/N=C/c1cn(C(=O)c2ccc3ccccc3c2)c2ccc(Cl)cc12 [IAG-9],30%,pIC50 [1]: 4.73
O=C1NC(=S)NC(=O)C1=Cc1cn(Cc2ccc3ccccc3c2)c2ccccc12 [IBA-1],116%,–
COc1ccc2c(c1)c(C=C1C(=O)N(C)C(=O)N(C)C1=O)c(C)n2Cc1cccc2ccccc12 [IBA-2],114%,–
Cc1c(C=C2C(=O)N(C)C(=O)N(C)C2=O)c2cc(Cl)ccc2n1Cc1cccc2ccccc12 [IBA-3],111%,–
COc1ccc(Cn2cc(C=C3C(=O)NC(=O)NC3=O)c3cccnc32)cc1 [IBA-4],110%,–
O=C1NC(=S)NC(=O)C1=Cc1cn(Cc2cccc3ccccc23)c2ncc(Cl)cc12 [IBA-5],109%,–
O=C1NC(=S)NC(=O)C1=Cc1cn(Cc2cccc3ccccc23)c2ccc(Cl)cc12 [IBA-6],108%,–
Cc1c(C=C2C(=O)NC(=O)NC2=O)c2ccccc2n1C(=O)c1cccc2ccccc12 [IBA-7],107%,–
O=C1NC(=O)C(=Cc2cn(Cc3cccc4ccccc34)c3ncc(Cl)cc23)C(=O)N1 [IBA-8],103%,–
O=C1NC(=O)C(=Cc2cn(Cc3cccc(C(F)(F)F)c3)c3ncccc23)C(=O)N1 [IBA-9],103%,–
N#Cc1ccc(Cn2cc(C=C3C(=O)NC(=O)NC3=O)c3ccccc32)cc1 [IBA-10],102%,–
Cc1c(C=C2C(=O)NC(=S)NC2=O)c2cc(Cl)ccc2n1Cc1cccc2ccccc12 [IBA-11],99.1%,–
Cc1c(C=C2C(=O)NC(=O)NC2=O)c2cc(Cl)ccc2n1Cc1cccc2ccccc12 [IBA-12],96.6%,–
O=C1NC(=S)NC(=O)C1=Cc1cn(Cc2cccc(C(F)(F)F)c2)c2ncccc12 [IBA-13],96.6%,–
Cc1c(C=C2C(=O)NC(=O)NC2=O)c2ccccc2n1C(=O)c1ccc2ccccc2c1 [IBA-14],95.7%,–
COc1ccc(Cn2cc(C=C3C(=O)NC(=S)NC3=O)c3cccnc32)cc1 [IBA-15],95.1%,–

Structure (SMILES),activity at 40 µM [1],further results
N#Cc1ccc(Cn2cc(C=C3C(=O)NC(=S)NC3=O)c3cccnc32)cc1 [IBA-16],94.5%,–
COc1ccc2c(c1)c(C=C1C(=O)NC(=S)NC1=O)cn2C(=O)c1cccc2ccccc12 [IBA-17],93.8%,–
Cc1c(C=C2C(=O)NC(=S)NC2=O)c2ccccc2n1C(=O)c1ccc2ccccc2c1 [IBA-18],93.5%,–
Cc1c(C=C2C(=O)NC(=O)NC2=O)c2ccccc2n1Cc1ccc(Br)cc1 [IBA-19],93.3%,–
COc1ccc2c(c1)c(C=C1C(=O)NC(=S)NC1=O)cn2C(=O)c1ccc2ccccc2c1 [IBA-20],92.9%,–
O=C1NC(=O)C(=Cc2cn(Cc3ccc4ccccc4c3)c3ncc(Cl)cc23)C(=O)N1 [IBA-21],92.2%,–
O=C1NC(=S)NC(=O)C1=Cc1cn(Cc2ccc(Br)cc2)c2ccc(COCCN3CCOCC3)cc12 [IBA-22],91.1%,–
COc1ccc2c(c1)c(C=C1C(=O)NC(=S)NC1=O)c(C)n2Cc1cccc2ccccc12 [IBA-23],91%,–
N#Cc1ccc(Cn2cc(C=C3C(=O)NC(=O)NC3=O)c3cccnc32)cc1 [IBA-24],88.8%,–
O=C1NC(=S)NC(=O)C1=Cc1cn(C(=O)c2ccc3ccccc3c2)c2ccc(Cl)cc12 [IBA-25],87.6%,–
Cc1c(C=C2C(=O)NC(=S)NC2=O)c2ccccc2n1C(=O)c1cccc2ccccc12 [IBA-26],86.4%,–
O=C1NC(=S)NC(=O)C1=Cc1cn(C(=O)c2cccc3ccccc23)c2ccc(Cl)cc12 [IBA-27],85.8%,–
O=C1NC(=S)NC(=O)C1=Cc1cn(Cc2ccc3ccccc3c2)c2ncc(Cl)cc12 [IBA-28],84.4%,–
O=C1NC(=S)NC(=O)C1=Cc1cn(C(=O)c2cccc3ccccc23)c2ccccc12 [IBA-29],83.3%,–
O=C1NC(=S)NC(=O)C1=Cc1cn(C(=O)c2ccc3ccccc3c2)c2ccccc12 [IBA-30],81.4%,–
O=C1NC(=O)C(=Cc2cn(Cc3ccc4ccccc4c3)c3ccc(Cl)cc23)C(=O)N1 [IBA-31],67.6%,–
O=C1NC(=S)NC(=O)C1=Cc1cn(Cc2ccc3ccccc3c2)c2ccc(Cl)cc12 [IBA-32],56.5%,"turnover number (kcat), hpol κ-catalyzed dTTP insertion ([1]; steady-state kinetics with varying inhibitor concentration): it was the kcat and not the KdNTP that was altered"
O=C1NC(=O)C(=Cc2cn(Cc3ccc4ccccc4c3)c3ccccc23)C(=O)N1 [IBA-33],17.9%,–
O=C1NC(=S)NC(=O)C1=Cc1cn(Cc2cccc3ccccc23)c2ccc(Br)cc12 [IBA-34],3.7%,–
CC(C)c1ccc2c(c1)c(SC(C)(C)C)c(CC(C)(C)C(=O)O)n2Cc1ccc(Cl)cc1 [MK-886],–,IC50 for inhibition of recombinant hpol κ [2]: tens of micromolar
"Cn1nnc2c(C(N)=O)ncn2c1=O [TMZ, temozolomide, reference compound]",–,colonies formed relative to control [3]: ~ 75%; colonies formed relative to untreated cells [4]: less than 50%
